The values that follow come from ChEMBL document CHEMBL3525899, “Identification of the cytochrome P450 and other enzymes involved in the in vitro oxidative metabolism of a novel antidepressant, Lu AA21004” (Drug Metab Dispos, 2012).

The target of data set [1] is T1, Cytochrome P450 2D6 (Homo sapiens, UniProt P10635). The data set can be described thus: Activity of human recombinant CYP2D6 expressed in microsomes isolated from human AHH-1 cells assessed as enzyme-mediated 3-methyl-4-(2-(piperazin-1-yl)phenylthio)benzoic acid formation at 8 to 50 uM after 120 mins by HPLC/MS-MS analysis in presence of NADPH regenerating system with NADP+. It counts as ADME, cell-free. The following applies: 2 h.

In data set [2] the test system is Liver microsome. As to the kind of experiment: Intrinsic clearance in pooled human liver microsomes assessed as Vmax(app)/Km(app) for formation of (3-methyl-4-(2-(piperazin-1-yl)phenylthio)phenyl)methanol per mg of protein after 30 mins by Michaelis-Menten plot analysis in presence of NADPH regenerating system with NADP+. The data set is classed as ADME. The following applies: 0.5 h. A general note: Liver microsomes are a subcellular fraction often used to study metabolism.

The subject of data set [3] is Liver microsome. The data set can be described thus: Drug metabolism in pooled human liver microsomes assessed as formation of 4-(2-(2,4-dimethylphenylthio)phenyl)piperazin-1-ol at 100 uM after 30 to 180 mins by HPLC/MS-MS analysis in presence of NADPH regenerating system with NADP+. The data set is classed as ADME.
Data set [4] addresses T2, Flavin-containing monooxygenase 3 (Homo sapiens, UniProt P31513).
T2 sequence (P31513 whole entry): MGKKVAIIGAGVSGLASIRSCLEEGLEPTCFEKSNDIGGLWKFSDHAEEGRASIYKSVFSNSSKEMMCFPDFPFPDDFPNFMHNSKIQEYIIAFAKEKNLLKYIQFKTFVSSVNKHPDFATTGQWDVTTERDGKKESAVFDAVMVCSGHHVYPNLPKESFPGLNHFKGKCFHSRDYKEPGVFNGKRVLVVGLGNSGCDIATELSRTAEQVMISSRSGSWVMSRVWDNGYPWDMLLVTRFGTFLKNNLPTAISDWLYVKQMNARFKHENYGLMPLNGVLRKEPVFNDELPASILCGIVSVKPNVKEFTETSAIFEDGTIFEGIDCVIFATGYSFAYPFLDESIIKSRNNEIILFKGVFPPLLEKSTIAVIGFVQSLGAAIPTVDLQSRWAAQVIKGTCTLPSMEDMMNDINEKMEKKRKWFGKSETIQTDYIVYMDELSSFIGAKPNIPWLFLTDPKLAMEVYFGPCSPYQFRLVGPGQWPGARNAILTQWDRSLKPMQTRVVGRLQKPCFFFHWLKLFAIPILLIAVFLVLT
As to the kind of experiment: Activity of human recombinant FMO3 expressed in microsomes isolated from baculovirus infected insect BTI-TN-5B1-4 cells assessed as enzyme-mediated 3-methyl-4-(2-(piperazin-1-yl)phenylthio)benzoic acid formation at 8 to 50 uM after 120 mins by HPLC/MS-MS analysis in presence of NADPH regenerating system with NADP+. It counts as ADME. Conditions: 2 h.

Data set [5] concerns the target T2, Flavin-containing monooxygenase 3. The data set can be described thus: Activity of human recombinant FMO3 expressed in microsomes isolated from baculovirus infected insect BTI-TN-5B1-4 cells assessed as enzyme-mediated 3-methyl-4-(2-(piperazin-1-yl)phenylthio)phenyl)methanol formation at 8 to 50 uM after 120 mins by HPLC/MS-MS analysis in presence of NADPH regenerating system with NADP+. The data set is classed as ADME. The following applies: 2 h.

The target is the same in data set [6]. The data set can be described thus: Activity of human recombinant FMO3 expressed in microsomes isolated from baculovirus infected insect BTI-TN-5B1-4 cells assessed as enzyme-mediated 3-(2,4-dimethylphenylthio)-4-(piperazin-1-yl)phenol formation at 8 to 50 uM after 120 mins by HPLC/MS-MS analysis in presence of NADPH regenerating system with NADP+. The data set is classed as ADME. The following applies: 2 h.

For data set [7] the target is unchanged. As to the kind of experiment: Activity of human recombinant FMO3 expressed in microsomes isolated from baculovirus infected insect BTI-TN-5B1-4 cells assessed as enzyme-mediated 4-(2-(2,4-dimethylphenylthio)phenyl)piperazin-1-ol formation at 8 to 50 uM after 120 mins by HPLC/MS-MS analysis in presence of NADPH regenerating system with NADP+. The data set is classed as ADME. The following applies: 2 h.

Data set [8] deals with T1, Cytochrome P450 2D6. As to the kind of experiment: Activity of human recombinant CYP2D6 expressed in microsomes isolated from human AHH-1 cells assessed as enzyme-mediated 3-(2,4-dimethylphenylthio)-4-(piperazin-1-yl)phenol formation at 8 to 50 uM after 120 mins by HPLC/MS-MS analysis in presence of NADPH regenerating system with NADP+. It counts as ADME, cell-free. The following applies: 2 h.

The next data set deals with Cytochrome P450 2C19 (Homo sapiens, UniProt P33261). The data set can be described thus: Activity of human recombinant CYP2C19 expressed in microsomes isolated from human AHH-1 cells assessed as enzyme-mediated 3-(2,4-dimethylphenylthio)-4-(piperazin-1-yl)phenol formation at 8 to 50 uM after 120 mins by HPLC/MS-MS analysis in presence of NADPH regenerating system with NADP+. The data set is classed as ADME, cell-free. The following applies: 2 h.

Data set [9] has as its system Liver microsome. The data set can be described thus: Drug metabolism in phenotyped human liver microsomes assessed as formation of 1-(2-(2,4-dimethylphenylsulfinyl)phenyl)piperazine at 8 to 50 uM after 60 mins by HPLC/MS-MS analysis in presence of NADPH regenerating system with NADP+. The data set is classed as ADME. The following applies: 1 h.
Data set [10] concerns Liver microsome. As to the kind of experiment: Drug metabolism in pooled human liver microsomes assessed as formation of (3-methyl-4-(2-(piperazin-1-yl)phenylthio)phenyl)methanol after 30 mins by Michaelis-Menten plot analysis in presence of NADPH regenerating system with NADP+. It counts as ADME. The following applies: 0.5 h, read-out: Km(app).
The target of data set [11] is T3, Cytochrome P450 2C9 (Homo sapiens, UniProt P11712). The data set can be described thus: Activity of human recombinant CYP2C9 expressed in microsomes isolated from human AHH-1 cells assessed as enzyme-mediated 4-(2-(2,4-dimethylphenylthio)phenyl)piperazin-1-ol formation at 8 to 50 uM after 120 mins by HPLC/MS-MS analysis in presence of NADPH regenerating system with NADP+. The data set is classed as ADME, cell-free. Conditions: 2 h.

Data set [12] deals with Liver microsome. The data set can be described thus: Drug metabolism in pooled human liver microsomes at 100 uM after 30 to 180 mins by HPLC/MS-MS analysis in absence of NADPH regenerating system with NADP+. It counts as ADME.
For data set [13], the system named is Liver microsome. As to the kind of experiment: Drug metabolism in pooled human liver microsomes assessed as formation of (3-methyl-4-(2-(piperazin-1-yl)phenylthio)phenyl)methanol per mg of protein after 30 mins by Michaelis-Menten plot analysis in presence of NADPH regenerating system with NADP+. The data set is classed as ADME. The following applies: 0.5 h.

The target of the next data set is Cytochrome P450 3A4 (Homo sapiens, UniProt P08684). The data set can be described thus: Activity of human recombinant CYP3A4 expressed in microsomes isolated from human AHH-1 cells assessed as enzyme-mediated 1-(2-(2,4-dimethylphenylsulfinyl)phenyl)piperazine formation at 8 to 50 uM after 120 mins by HPLC/MS-MS analysis in presence of NADPH regenerating system with NADP+. It counts as ADME, cell-free. Conditions: 2 h.

For data set [14], the system named is Liver microsome. As to the kind of experiment: Drug metabolism in phenotyped human liver microsomes assessed as formation of (3-methyl-4-(2-(piperazin-1-yl)phenylthio)phenyl)methanol at 8 to 50 uM after 60 mins by HPLC/MS-MS analysis in presence of NADPH regenerating system with NADP+. The data set is classed as ADME. The following applies: 1 h.
In a further data set the target is Cytochrome P450 2E1 (Homo sapiens, UniProt P05181). As to the kind of experiment: Activity of human recombinant CYP2E1 expressed in microsomes isolated from human AHH-1 cells assessed as enzyme-mediated 3-(2,4-dimethylphenylthio)-4-(piperazin-1-yl)phenol formation at 8 to 50 uM after 120 mins by HPLC/MS-MS analysis in presence of NADPH regenerating system with NADP+. The data set is classed as ADME, cell-free. The following applies: 2 h.

Data set [15] concerns the target T3, Cytochrome P450 2C9. As to the kind of experiment: Activity of human recombinant CYP2C9 expressed in microsomes isolated from human AHH-1 cells assessed as enzyme-mediated 3-(2,4-dimethylphenylthio)-4-(piperazin-1-yl)phenol formation at 8 to 50 uM after 120 mins by HPLC/MS-MS analysis in presence of NADPH regenerating system with NADP+. It counts as ADME, cell-free. Conditions: 2 h.

T3 sequence (P11712 whole entry): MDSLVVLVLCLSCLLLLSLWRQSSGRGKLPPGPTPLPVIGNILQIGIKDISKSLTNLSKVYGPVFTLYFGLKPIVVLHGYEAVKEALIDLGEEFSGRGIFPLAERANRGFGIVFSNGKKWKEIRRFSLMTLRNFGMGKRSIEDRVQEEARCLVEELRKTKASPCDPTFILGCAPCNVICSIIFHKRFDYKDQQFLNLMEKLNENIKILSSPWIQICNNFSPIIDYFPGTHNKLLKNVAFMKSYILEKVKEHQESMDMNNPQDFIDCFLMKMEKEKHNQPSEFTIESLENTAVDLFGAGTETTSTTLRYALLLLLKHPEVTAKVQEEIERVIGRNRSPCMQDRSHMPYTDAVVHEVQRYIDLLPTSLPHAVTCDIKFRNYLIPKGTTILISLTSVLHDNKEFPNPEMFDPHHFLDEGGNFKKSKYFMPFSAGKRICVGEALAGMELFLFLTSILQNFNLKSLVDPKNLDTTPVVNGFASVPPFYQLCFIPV
T1 sequence (P10635 whole entry): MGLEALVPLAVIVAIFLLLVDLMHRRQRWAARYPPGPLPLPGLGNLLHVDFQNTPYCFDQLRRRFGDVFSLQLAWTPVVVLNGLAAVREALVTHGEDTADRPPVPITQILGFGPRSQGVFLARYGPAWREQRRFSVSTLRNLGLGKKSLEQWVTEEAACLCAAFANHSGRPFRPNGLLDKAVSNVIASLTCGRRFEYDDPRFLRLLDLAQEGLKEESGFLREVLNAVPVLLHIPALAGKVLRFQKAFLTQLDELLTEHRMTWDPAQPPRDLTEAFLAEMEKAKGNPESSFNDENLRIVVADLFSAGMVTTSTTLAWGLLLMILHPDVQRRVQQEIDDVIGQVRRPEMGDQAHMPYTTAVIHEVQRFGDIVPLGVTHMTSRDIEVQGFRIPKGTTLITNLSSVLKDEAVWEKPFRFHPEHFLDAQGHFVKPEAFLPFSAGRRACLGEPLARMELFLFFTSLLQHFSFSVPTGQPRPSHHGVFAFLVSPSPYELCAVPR
Cytochrome P450 2E1, sequence (P05181 whole entry): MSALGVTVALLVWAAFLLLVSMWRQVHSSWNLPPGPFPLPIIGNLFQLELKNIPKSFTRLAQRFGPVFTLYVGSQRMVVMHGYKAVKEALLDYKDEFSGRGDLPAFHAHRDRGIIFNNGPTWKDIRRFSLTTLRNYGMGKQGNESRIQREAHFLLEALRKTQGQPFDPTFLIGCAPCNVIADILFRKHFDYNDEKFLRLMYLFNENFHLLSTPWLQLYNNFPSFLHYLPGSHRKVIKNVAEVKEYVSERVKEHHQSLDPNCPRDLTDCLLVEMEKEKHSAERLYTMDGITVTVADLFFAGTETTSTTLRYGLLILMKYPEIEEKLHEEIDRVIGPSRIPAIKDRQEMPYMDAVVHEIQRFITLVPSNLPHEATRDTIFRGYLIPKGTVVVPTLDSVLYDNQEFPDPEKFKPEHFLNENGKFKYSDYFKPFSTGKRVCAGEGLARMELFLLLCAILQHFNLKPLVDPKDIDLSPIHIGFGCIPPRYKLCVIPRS
Cytochrome P450 2C19, sequence (P33261 whole entry): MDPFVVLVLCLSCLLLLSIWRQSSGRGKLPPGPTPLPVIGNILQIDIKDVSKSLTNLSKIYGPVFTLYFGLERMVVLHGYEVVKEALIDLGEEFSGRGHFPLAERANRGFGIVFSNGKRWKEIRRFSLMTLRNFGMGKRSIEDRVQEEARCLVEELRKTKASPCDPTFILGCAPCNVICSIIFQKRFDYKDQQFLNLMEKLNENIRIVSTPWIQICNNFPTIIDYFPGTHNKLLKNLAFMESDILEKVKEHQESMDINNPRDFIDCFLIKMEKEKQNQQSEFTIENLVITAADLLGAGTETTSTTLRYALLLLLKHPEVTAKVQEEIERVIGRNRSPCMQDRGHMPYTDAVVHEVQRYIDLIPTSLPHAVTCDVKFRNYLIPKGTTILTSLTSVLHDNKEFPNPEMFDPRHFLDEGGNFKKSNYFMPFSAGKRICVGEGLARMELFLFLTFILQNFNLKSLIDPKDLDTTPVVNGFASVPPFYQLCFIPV
Cytochrome P450 3A4, sequence (P08684 whole entry): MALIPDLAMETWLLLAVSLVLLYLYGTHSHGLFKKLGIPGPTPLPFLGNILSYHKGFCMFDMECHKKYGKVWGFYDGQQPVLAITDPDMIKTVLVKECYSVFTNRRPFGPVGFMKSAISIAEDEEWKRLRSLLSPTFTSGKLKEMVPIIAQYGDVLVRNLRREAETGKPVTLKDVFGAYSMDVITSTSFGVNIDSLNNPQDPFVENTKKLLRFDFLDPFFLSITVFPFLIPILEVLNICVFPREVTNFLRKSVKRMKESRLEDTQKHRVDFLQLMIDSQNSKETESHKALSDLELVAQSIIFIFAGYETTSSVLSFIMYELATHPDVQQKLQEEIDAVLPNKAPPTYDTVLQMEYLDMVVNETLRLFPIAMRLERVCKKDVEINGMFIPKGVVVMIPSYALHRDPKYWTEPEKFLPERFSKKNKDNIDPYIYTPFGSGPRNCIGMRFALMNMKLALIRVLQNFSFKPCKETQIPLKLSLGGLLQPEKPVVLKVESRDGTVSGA

Regarding `Br.Cc1ccc(Sc2ccccc2N2CCNCC2)c(C)c1` [VORTIOXETINE HYDROBROMIDE], the Drug metabolism result on Cytochrome P450 2D6 [1] is reported as “metabolite_detected”; in the data set with Liver microsome [3] it was “metabolite_detected”; in data set [4] it was “metabolite_not_detected”; in [5], “metabolite_not_detected”; in [6], “metabolite_not_detected”; in data set [7], “metabolite_not_detected”. Besides, the Drug metabolism entry was “metabolite_detected” at Cytochrome P450 2D6 [8]; “metabolite_detected” at Cytochrome P450 2C19; “metabolite_detected” in the data set on Liver microsome [9]; “metabolite_detected” at Cytochrome P450 2C9 [11]; “metabolite_not_detected” in the data set with Liver microsome [12]; “metabolite_detected” on Cytochrome P450 3A4. For the same compound, the Drug metabolism entry was “metabolite_detected” in the data set on Liver microsome [14], “metabolite_not_detected” at Cytochrome P450 2E1 and “metabolite_detected” on Cytochrome P450 2C9 [15]. Also, the Vmax/Km with Liver microsome [2] came out at 1.13 µL/min. The Michaelis constant (Km) in the data set with Liver microsome [10] came out at 231 µM. Moreover, the “Vmax(app)” value with Liver microsome [13] stood at 262 pmol/min.

A word on the Km: it is the concentration of substrate that gives half-maximal velocity.
